In article PMC5979327 (International Journal of Molecular Sciences, 2018):

Experiments:
[1] = test system: cerebral amine neurotransmitter concentrations; assay: Post-mortem brain tissue concentration of histamine, noradrenaline, dopamine and serotonin; format: in vivo, rat; conditions: rats, 3 mg/kg s.c. for 5 days; for histamine concentration in the hypothalamus: not statistically significant
Description: (§1) Following the behavioral study, the rats were sacrificed, and their brains were collected. From each brain, the cerebral cortex and hypothalamus were quickly dissected according to the Glowinski and Iversen method. The samples were immediately frozen in liquid nitrogen and kept at −70 °C until assayed.
The amine concentrations were expressed as ng/g wet weight (HA) or nmol/g wet weight (DA, NA, 5-HT).

rats = assay: Feeding behavior of rats after repeated subcutaneous administration; format: in vivo, rat; conditions: 3 mg/kg s.c. for 5 days; for amount of consumed food (food intake): versus pre-treatment period
Excerpt: Finally, compound ADS-003 (1a) was subjected to an in vivo evaluation of its impact on brain neurotransmitter systems. This assessment concerned: • - The effects of the compound on the feeding behavior of rats after its repeated peripheral administration. […] The latter was accomplished by postmortem analyses of the brain tissues of the treated rats.
All animal experimental procedures were in accordance with EU directives and local ethical regulations. Male Wistar rats (260–300 g) were used. The animals were maintained under standard laboratory conditions (liquid and food available ad libitum, 12 h light–dark cycle). For feeding behavior examination, the rats were placed individually in metabolic cages (TecniplastGazzada, Buguggiate, Italy) and kept there throughout the entire test. Pharmacotherapy was preceded by a control period of 4 days aimed to determine the basal feed and water consumptions as well as urine excretion. The rats (n = 8 per group) were randomly given the H3R antagonists ADS-003 or Ciproxifan, the latter serving as a reference compound [40]. Control rats were treated with an equivalent volume of physiological saline. The compounds, dissolved in distilled water with DMSO (7%, v/v), were administered subcutaneously at a dose of 3 mg/kg of body mass for 5 consecutive days, always during the morning hours, following the record of feeding parameters. The dose of ADS-003 had been determined on the basis of a thorough characterization in vitro. The recorded volumes of consumed food are expressed in g or ml per 100 g of body weight or in ml per 24 h, respectively. The final results are given as means, with SEM calculated for each 24 h period, computed from a four-day (before treatment) or a five-day (treatment) monitoring

MAO-A = assay: Post-mortem cerebral MAO-A activity of treated rats (radioassay); format: in vivo, rat; conditions: cerebral cortex, s.c. 3 mg/kg/daily for 5 days, means ± SEM
Description: as §1
(§2) Monoamine oxidase A and B (EC 1.4.3.4; MAO A and B) activities were estimated in cerebral homogenates with radioassays, using serotonin (fine conc. 200 μM) and β-phenylethylamine (fine conc. 20 μM), as well as specific inhibitors—clorgyline and deprenyl (0.3 μM each), respectively.
(§3) The enzyme activities are expressed as pmol/min/mg protein. Protein concentration was analyzed according to Lowry’s method.

[2] = molecular target: T1, guinea pig H3 receptor (jejunum) (Cavia porcellus, UniProt Q9JI35); assay: H3 antagonistic activity against H3 agonist-induced inhibition of the electrically evoked contraction of the guinea pig jejunum; format: biochemical; conditions: vs (R)-α-methylhistamine, Schild plot, dihydrogenoxolate salts, read-out: pA2 (sem) (converted)
T1 construct: Whole jejunum segments (2 cm) were prepared and mounted between two platinum electrodes; from tissue; host or cells: guinea pig jejunum (small intestine)
Description: All newly synthesized compounds were converted into their dihydrogenoxolates salts and in vitro evaluated as H3 receptor antagonists against H3 agonist-induced inhibition of the electrically evoked contraction of the guinea pig jejunum.
In the first step, all the obtained compounds were tested for their H3 antagonistic effects in vitro, following standard methods, using the electrically contracting guinea pig jejunum.
Male guinea pigs weighing 300–400 g were sacrificed, and a portion of the small intestine, 20–50 cm proximal to the ileocaecal valve (jejunum), was removed and placed in Krebs buffer (composition (mM) NaCl 118; KCl 5.6; MgSO4 1.18; CaCl2 2.5; NaH2PO4 1.28; NaHCO3 25; glucose 5.5; indomethacin (1 × 10^ℒ6mol/L)). Whole jejunum segments (2 cm) were prepared and mounted between two platinum electrodes (4 mm apart) in 20 mL Krebs buffer, continuously gassed with 95% O2:5% CO2, and maintained at 37 °C. the contractions were recorded isotonically under 1.0 g tension with a Hugo Sachs Hebel–Messvorsatz (Tl-2)/HF-modem (Hugo Sachs Elektronik, Hugstetten, Germany) connected to a pen recorder. The equilibration lasted for one hour with washings every 10 min. The muscle segments were then stimulated at a maximum between 15 and 20 Volts, continuously at a frequency of 0.1 Hz for a duration of 0.5 msec, with rectangular wave electrical pulses, delivered by a Grass Stimulator S-88 (Grass Instruments Co., Quincy, MA, USA). […] The antagonists were preincubated for 20 min during the stimulation, before the preparation were challenged with (R)-α-methylhistamine. Antagonist potency was determined by the construction of a Schild plot, using three different concentrations of the antagonist. The potency of an antagonist is expressed by its pA2 value. The pA2 values were compared with those indicating the potency of thioperamide.

[3] = test system: histamine N-methyltransferase (HNMT); assay: Post-mortem cerebral histamine N-methyltransferase activity of treated rats (radioenzymatic); format: in vivo, rat; conditions: s.c. 3 mg/kg/daily for 5 days, means ± SEM; for HMNT activity, CTX: cerebral cortex; for HMNT activity, HTH: hypothalamus
[4] = molecular target: T2, human histamine H3 receptor (hH3R) (Homo sapiens, UniProt Q9Y5N1); assay: biochemical; format: binding
T2 construct: expressed in transfected cells; host or cells: HEK293T, transient PEI transfection with pcDNA3.1-hH3R; crude membranes

MAO-B = assay: Post-mortem cerebral MAO-B activity of treated rats (radioassay); format: in vivo, rat; conditions: cerebral cortex, s.c. 3 mg/kg/daily for 5 days, means ± SEM
Description: as §1, §2, §3

[5] = molecular target: T3, rat histamine H3 receptor (rH3R) (Rattus norvegicus, UniProt Q9QYN8); assay: [3H]-Nα-methylhistamine binding (saturation and displacement) to rat H3R in HEK-293T cell membranes
T3 construct: expressed in transfected cells; host or cells: HEK293T, transient PEI transfection with pcDNA3-rH3R; crude membranes

H1-receptor = molecular target: T4, H1-receptor (Cavia porcellus, UniProt P31389); assay: H1 antagonistic effects in vitro, guinea pig ileum, histamine as competing agonist; format: biochemical; conditions: read-out: pA2 (H1 antagonistic activity) (converted)
T4 construct: from tissue; host or cells: guinea pig ileum
Description: The pA2 values were calculated according to Arunlakshana and Schild [34].

[6] = compared with Ciproxifan; cited from earlier work

T1 sequence (Q9JI35 whole entry): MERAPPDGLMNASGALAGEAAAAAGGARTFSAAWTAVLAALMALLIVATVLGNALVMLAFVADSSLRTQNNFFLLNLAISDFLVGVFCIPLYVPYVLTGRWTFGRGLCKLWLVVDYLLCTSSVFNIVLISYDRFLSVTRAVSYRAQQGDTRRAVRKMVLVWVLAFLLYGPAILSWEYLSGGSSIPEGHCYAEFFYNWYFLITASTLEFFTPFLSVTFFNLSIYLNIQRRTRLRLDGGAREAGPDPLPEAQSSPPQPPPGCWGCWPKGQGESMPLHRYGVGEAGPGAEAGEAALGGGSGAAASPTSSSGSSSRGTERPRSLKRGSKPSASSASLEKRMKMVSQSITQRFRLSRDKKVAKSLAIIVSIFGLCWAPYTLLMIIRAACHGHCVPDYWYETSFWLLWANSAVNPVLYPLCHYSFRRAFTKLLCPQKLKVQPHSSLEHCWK
T3 sequence (Q9QYN8 whole entry): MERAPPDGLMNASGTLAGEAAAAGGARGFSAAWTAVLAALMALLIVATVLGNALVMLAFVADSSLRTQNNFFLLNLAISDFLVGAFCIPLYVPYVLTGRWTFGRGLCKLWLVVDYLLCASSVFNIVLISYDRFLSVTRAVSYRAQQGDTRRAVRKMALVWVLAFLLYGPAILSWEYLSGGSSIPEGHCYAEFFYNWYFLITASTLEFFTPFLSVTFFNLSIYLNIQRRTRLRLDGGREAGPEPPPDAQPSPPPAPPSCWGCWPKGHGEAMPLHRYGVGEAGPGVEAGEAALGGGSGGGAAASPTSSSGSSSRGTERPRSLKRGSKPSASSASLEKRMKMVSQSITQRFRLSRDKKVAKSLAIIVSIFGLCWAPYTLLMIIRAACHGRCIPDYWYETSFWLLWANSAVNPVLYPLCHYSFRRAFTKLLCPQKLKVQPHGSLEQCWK
T2 sequence (Q9Y5N1 whole entry): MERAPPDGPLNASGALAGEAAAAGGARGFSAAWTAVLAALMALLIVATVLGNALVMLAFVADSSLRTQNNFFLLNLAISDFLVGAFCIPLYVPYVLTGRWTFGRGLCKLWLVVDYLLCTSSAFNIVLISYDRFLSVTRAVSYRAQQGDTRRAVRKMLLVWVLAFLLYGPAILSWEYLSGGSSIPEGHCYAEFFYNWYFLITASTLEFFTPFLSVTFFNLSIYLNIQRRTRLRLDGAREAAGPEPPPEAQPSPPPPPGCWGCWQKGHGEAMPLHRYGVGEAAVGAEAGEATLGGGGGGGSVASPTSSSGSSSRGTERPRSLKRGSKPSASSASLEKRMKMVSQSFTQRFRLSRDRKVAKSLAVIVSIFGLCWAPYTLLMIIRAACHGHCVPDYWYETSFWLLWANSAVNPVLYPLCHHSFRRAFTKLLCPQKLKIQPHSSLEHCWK
T4 sequence (P31389 whole entry): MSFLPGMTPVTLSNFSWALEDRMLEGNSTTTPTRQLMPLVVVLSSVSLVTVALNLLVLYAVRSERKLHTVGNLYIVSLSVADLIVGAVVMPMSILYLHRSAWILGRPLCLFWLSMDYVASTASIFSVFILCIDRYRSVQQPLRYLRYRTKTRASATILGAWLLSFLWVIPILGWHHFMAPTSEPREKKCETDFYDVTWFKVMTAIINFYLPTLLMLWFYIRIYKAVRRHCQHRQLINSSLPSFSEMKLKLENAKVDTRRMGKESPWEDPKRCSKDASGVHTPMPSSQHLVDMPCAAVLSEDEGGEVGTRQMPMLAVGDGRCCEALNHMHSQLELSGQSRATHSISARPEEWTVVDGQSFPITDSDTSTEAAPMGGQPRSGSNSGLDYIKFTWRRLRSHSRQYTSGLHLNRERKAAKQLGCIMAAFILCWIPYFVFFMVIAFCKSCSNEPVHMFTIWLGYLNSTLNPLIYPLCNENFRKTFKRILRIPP

For `CCCN(C)CCCCCOC1CCN(Cc2cc3ccccc3o2)CC1` [1a], the “histamine levels in the cerebral cortex” value [1] was “no changes”, the “noradrenaline levels in the cerebral cortex” value [1] was “enhanced” and the “histamine concentration in the hypothalamus” value [1] was “tendency to increase”. For the same compound, the “crossing of the blood–brain barrier (suggested by the food intake results)” value (rats) was “crosses the BBB”, the “amount of consumed food (food intake)” value (rats) was “statistically significant reduction” and the “MAO-A activity, CTX” value (MAO-A) was 1536 ± 50 pmol/min/mg Protein. For the same compound, the Kb [2] was 5.37 nM, the “HMNT activity, CTX” value [3] was 44.41 ± 1.06 pmol/min/mg Protein and the “HMNT activity, HTH” value [3] was 41.09 ± 0.80 pmol/min/mg Protein. For the same compound, the Ki [4] was 251 nM, the “MAO-B activity, CTX” value (MAO-B) was 1065 ± 48 pmol/min/mg Protein and the Ki [5] was 12.6 nM.
For `CCCN(C)CCCCCOC1CCN(CCc2cc3ccccc3o2)CC1` [1b, 5-{{1-[2-(1-Benzofuran-2-yl)ethyl]piperidin-4-yl}oxy}-N-methyl-N-propylpentan-1-amine], the Kb (H1-receptor) was > 100000 nM and the Kb [2] was 55 nM.
`CCCN(C)CCCCCOC1CCN(CCCc2cc3ccccc3o2)CC1` [1c, 5-{{1-[3-(1-Benzofuran-2-yl)propyl]piperidin-4-yl}oxy}-N-methyl-N-propylpentan-1-amine] showed a Kb [2] of 77.6 nM.
Work on `CCCN(C)CCCCCOC1CCN(CCc2ccccc2)CC1` [1e, N-Methyl-5-[(1-phenethylpiperidin-4-yl)oxy]-N-propylpentan-1-amine] yielded a Kb [2] of 214 nM.
For `CCCN(C)CCCCCOC1CCN(CCCc2ccccc2)CC1` [1f, N-Methyl-5-{[1-(3-phenylpropyl)piperidin-4-yl]oxy}-N-propylpentan-1-amine], the Kb (H1-receptor) was > 100000 nM and the Kb [2] was 30.9 nM.
`CCCN(C)CCCCCOCCCN(C)CCc1cc2ccccc2o1` [2b, 5-{3-{[2-(Benzofuran-2-yl)ethyl](methyl)amino}propoxy}-N-methyl-N-propylpentan-1-amine] gave a Kb [2] of 479 nM.
With `CCCN(C)CCCCCOCCCN(C)CCCc1cc2ccccc2o1` [2c, 5-{3-{[3-(Benzofuran-2-yl)propyl](methyl)amino}propoxy}-N-methyl-N-propylpentan-1-amine] the Kb [2] was 427 nM.
`CCCN(C)CCCCCOCCCN(C)CCc1ccccc1` [2e, N-Methyl-5-{3-[methyl(phenethyl)amino]propoxy}-N-propylpentan-1-amine] showed a Kb [2] of 191 nM.
In the case of `CCCN(C)CCCCCOCCCN(C)CCCc1ccccc1` [2f, N-Methyl-5-(3-(methyl(3-phenylpropyl)amino)propoxy)-N-propylpentan-1-amine], the Kb [2] is reported as 162 nM.
With `O=C(c1ccc(OCCCc2cnc[nH]2)cc1)C1CC1` [Ciproxifan, reference compound] the “histamine levels in the cerebral cortex” value [1] was “no changes”, the “noradrenaline levels in the cerebral cortex” value [1] was “enhanced” and the “histamine concentration in the hypothalamus” value [1] was “tendency to increase”. The “amount of consumed food (food intake)” value (rats) was “statistically significant reduction”, the “MAO-A activity, CTX” value (MAO-A) was 1654 ± 31 pmol/min/mg Protein and the “HMNT activity, CTX” value [3] was 46.90 ± 3.59 pmol/min/mg Protein. For the same compound, the “HMNT activity, HTH” value [3] was 51.76 ± 5.67 pmol/min/mg Protein and the “MAO-B activity, CTX” value (MAO-B) was 1049 ± 56 pmol/min/mg Protein.
In the case of `S=C(NC1CCCCC1)N1CCC(c2cnc[nH]2)CC1` [Thioperamide], the “bioavailability / brain penetration” value [6] is listed as “lower bioavailability”.
For `CNCCc1cnc[nH]1` [[^3H]-N^α-MH, [^3H]-N^α-methylhistamine, reference compound], the Kd ([4]; read-out: KD (saturation binding)) was 0.9 ± 0.08 nM and the Kd ([5]; rH3R, HEK-293T membranes) was 2.72 ± 0.34 nM.
